Data on eight compounds can be found in patent US20260374773A1, “MULTI-CYCLIC IRAK AND FLT3 INHIBITING COMPOUNDS AND USES THEREOF” (CHILDREN'S HOSPITAL MEDICAL CENTER, priority 2022, published 2026).

For one experiment, the target named is T1, FLT3 (Homo sapiens, UniProt P36888).
T1 sequence (P36888 27-993): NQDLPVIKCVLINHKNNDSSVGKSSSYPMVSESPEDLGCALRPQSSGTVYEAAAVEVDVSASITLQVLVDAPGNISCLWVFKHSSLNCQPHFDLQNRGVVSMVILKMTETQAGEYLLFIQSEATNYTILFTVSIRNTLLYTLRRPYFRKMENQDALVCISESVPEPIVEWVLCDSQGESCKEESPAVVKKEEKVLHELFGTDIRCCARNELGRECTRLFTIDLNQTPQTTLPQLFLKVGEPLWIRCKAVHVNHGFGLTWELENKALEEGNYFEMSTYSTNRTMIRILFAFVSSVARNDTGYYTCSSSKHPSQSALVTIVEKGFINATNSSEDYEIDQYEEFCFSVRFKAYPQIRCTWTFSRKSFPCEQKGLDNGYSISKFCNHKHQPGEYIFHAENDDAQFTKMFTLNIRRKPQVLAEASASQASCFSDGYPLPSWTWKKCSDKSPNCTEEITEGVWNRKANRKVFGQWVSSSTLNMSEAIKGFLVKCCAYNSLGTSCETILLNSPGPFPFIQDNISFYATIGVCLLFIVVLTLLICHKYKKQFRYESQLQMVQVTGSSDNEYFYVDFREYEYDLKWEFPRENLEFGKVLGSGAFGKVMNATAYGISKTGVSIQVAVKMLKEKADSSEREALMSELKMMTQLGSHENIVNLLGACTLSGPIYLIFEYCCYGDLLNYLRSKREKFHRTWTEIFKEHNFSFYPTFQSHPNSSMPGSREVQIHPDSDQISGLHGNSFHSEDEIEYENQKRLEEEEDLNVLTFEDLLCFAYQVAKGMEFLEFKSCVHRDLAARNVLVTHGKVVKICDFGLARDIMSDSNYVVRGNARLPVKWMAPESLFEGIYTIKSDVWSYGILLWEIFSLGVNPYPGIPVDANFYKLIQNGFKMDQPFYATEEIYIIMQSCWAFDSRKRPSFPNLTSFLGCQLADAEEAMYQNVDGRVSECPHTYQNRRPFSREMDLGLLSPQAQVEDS
Briefly: DiscoverX KINOMEscan active site-directed competition binding, FLT3. The note with it: Table 12; no ATP.
Source text: (§1) Kinase binding data were obtained for various exemplary compounds prepared according to Examples 1-8 using the DiscoverX KINOMEscan® active site-directed competition binding site-directed assay protocol described below. […] As a result, the data report thermodynamic interaction affinities (Kd values), rather than IC50 values that are dependent on ATP concentrations. The assay uses a DNA-tagged version of the protein kinase, and an immobilized ligand bound to a solid support. Compounds that directly or indirectly prevent kinase binding to the immobilized ligand reduce the amount of kinase captured on the solid support, which is detected using an ultra-sensitive qPCR method. Affinity constants reported from the assay have been reported to be independent of the immobilized ligand used that is coupled to the solid support (See supplemental information in Fabian, M. A. et. al., (2005) Nat. Biotechnol. 23, 329-336; Wodicka, L. M. et. al., (2010) Chem. Biol. 17, 1241-1249.)
Kinase-tagged T7 phage strains were prepared in an E. coli host derived from the BL21 strain. E. coli were grown to log-phase and infected with T7 phage and incubated with shaking at 32 °C until lysis. The lysates were centrifuged and filtered to remove cell debris. The remaining kinases were produced in HEK-293 cells and subsequently tagged with DNA for qPCR detection. Streptavidin-coated magnetic beads were treated with biotinylated small molecule ligands for 30 minutes at room temperature to generate affinity resins for kinase assays. The liganded beads were blocked with excess biotin and washed with blocking buffer (SeaBlock (Pierce), 1% BSA, 0.05% Tween 20, 1 mM DTT) to remove unbound ligand and to reduce non-specific binding. […] Test compounds were prepared as 111x stocks in 100% DMSO. Kds were determined using an 11-point 3-fold compound dilution series with three DMSO control points. All compounds for Kd measurements are distributed by acoustic transfer (non-contact dispensing) in 100% DMSO. The compounds were then diluted directly into the assays such that the final concentration of DMSO was 0.9%. All reactions were performed in polypropylene 384-well plates. Each was a final volume of 0.02 mL. The assay plates were incubated at room temperature with shaking for 1 hour and the affinity beads were washed with wash buffer (1×PBS, 0.05% Tween 20). The beads were then re-suspended in elution buffer (1×PBS, 0.05% Tween 20, 0.5 μM nonbiotinylated affinity ligand) and incubated at room temperature with shaking for 30 minutes. The kinase concentration in the eluates was measured by qPCR. Binding constants (Kds) were calculated with a standard dose-response curve using the Hill equation. The Hill Slope was set to −1. Curves were fitted using a non-linear least square fit with the Levenberg-Marquardt algorithm.
as §1, with “9-12” for “1-8”
Kinase-tagged T7 phage strains were prepared in an E. coli host derived from the BL21 strain. […]
Usually Kd stands for a measure of binding affinity in units of concentration. As for `COc1cn2ncc(-c3nc(N[C@H]4CNCC[C@@H]4F)c(C#N)cc3F)c2nc1C1CC1` [Compound 7, 6-(5-cyclopropyl-6-methoxypyrazolo[1,5-a]pyrimidin-3-yl)-5-fluoro-2-(((3S,4S)-4-fluoropiperidin-3-yl)amino)nicotinonitrile], the dissociation constant (Kd) was below 0.17 nM.
Same read-out and setting: to `COc1cn2ncc(-c3nc(N[C@H]4CNCC[C@@H]4F)c(C#N)cc3F)c2nc1C(C)(C)O` [Compound 10, 5-fluoro-2-(((3S,4S)-4-fluoropiperidin-3-yl)amino)-6-(5-(2-hydroxypropan-2-yl)-6-methoxypyrazolo[1,5-a]pyrimidin-3-yl)nicotinonitrile] belongs 0.28 nM; to `COc1cn2ncc(-c3nc(N[C@H]4CNCC[C@@H]4F)c(F)cc3F)c2nc1C(C)(C)O` [Compound 13, 2-(3-(3,5-difluoro-6-(((3S,4S)-4-fluoropiperidin-3-yl)amino)pyridin-2-yl)-6-methoxypyrazolo[1,5-a]pyrimidin-5-yl)propan-2-ol], 0.61 nM.

The same experiment, now with this note: Table 18; no ATP.
On to `COc1cn2ncc(-c3nc(N[C@H]4CNCC[C@@H]4F)ncc3F)c2nc1C(C)(C)O` [Compound 6a, 2-(3-(5-fluoro-2-(((3S,4S)-4-fluoropiperidin-3-yl)amino)pyrimidin-4-yl)-6-methoxypyrazolo[1,5-a]pyrimidin-5-yl)propan-2-ol], for which the affinity, expressed as Kd, was 0.47 nM.
`COc1cn2ncc(-c3cncc(N[C@H]4CNCC[C@@H]4F)n3)c2nc1C1CC1` [Compound 12a, 6-(5-cyclopropyl-6-methoxypyrazolo[1,5-a]pyrimidin-3-yl)-N-((3S,4S)-4-fluoropiperidin-3-yl)pyrazin-2-amine]: the Kd was below 0.17 nM.
Still for that read-out and setting: to `COc1cn2ncc(-c3nc(N[C@@H]4CCCNC4)ncc3F)c2nc1C1CC1` [Compound 14a, (R)-4-(5-cyclopropyl-6-methoxypyrazolo[1,5-a]pyrimidin-3-yl)-5-fluoro-N-(piperidin-3-yl)pyrimidin-2-amine] belongs below 0.17 nM; to `COc1cn2ncc(-c3nc(N[C@H]4CNCC[C@@H]4F)ncc3F)c2nc1C1CC1` [Compound 15a, 4-(5-cyclopropyl-6-methoxypyrazolo[1,5-a]pyrimidin-3-yl)-5-fluoro-N-((3S,4S)-4-fluoropiperidin-3-yl)pyrimidin-2-amine], below 0.17 nM.
On the same count and under the same terms, to `COc1cn2ncc(-c3ccnc(N[C@H]4CNCC[C@@H]4F)n3)c2nc1C1CC1` [Compound 7a, 4-(5-cyclopropyl-6-methoxypyrazolo[1,5-a]pyrimidin-3-yl)-N-((3S,4S)-4-fluoropiperidin-3-yl)pyrimidin-2-amine] belongs below 0.17 nM.
